According to ChEMBL document CHEMBL1201862, “PubChem BioAssay data set” (2004):
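Where inhibition never reached the appropriate level, the endpoint shown equals the highest concentration tested. Otherwise, values were interpolated linearly from a five-concentration, 48-hour dose response in 96-well plates. Abbreviation: GI50, concentration required for 50% inhibition of growth.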 The source made the active and inactive calls. Cut-off read from the data, not from the text of the source: active = GI50 up to about 1.1 µM and inactive = higher. Starred links: 1 amine or outer side, 2 acyl side, 3 side chain; linkers in the order of their positions; H or OH if unused. Non-standard residues stand in square brackets, D forms with d. Residues, ends and D or L forms follow the SMILES beside them. ξ: configuration not given here. X24 = O=C(C(CC(O)CO)O[*:1])[*:2]; Ile(3ξ) = CCC(C)[C@H](N)C(=O)O; NMeV = CN[C@H](C(=O)O)C(C)C; NMeA = CN[C@@H](C)C(=O)O; βAla = NCCC(=O)O

What was measured:
Test in all cases: growth of human tumour cells (NCI), 48 h
DMS-114 = tested on: DMS-114
DMS-273 = tested on: DMS-273
KM-20L2 = tested on: KM-20L2
LXFL 529 = tested on: LXFL 529
M19-MEL = tested on: M19-MEL
RXF 631 = tested on: RXF 631
SNB-78 = tested on: SNB-78
XF498 = tested on: XF498
HOP-18 = tested on: HOP-18

Measured: GI50

O=C(O)COc1ccc(O)c2c1C(=O)CCCC2=O
inactive: DMS-114 > 100 µM | DMS-273 > 100 µM | KM-20L2 > 100 µM | LXFL 529 > 100 µM | M19-MEL > 100 µM | RXF 631 > 100 µM | SNB-78 > 100 µM | XF498 > 100 µM

O=C(Cc1ccc([N+](=O)[O-])c([N+](=O)[O-])c1CC(=O)C(=O)Nc1cc(Cl)ccc1Cl)C(=O)Nc1cc(Cl)ccc1Cl
inactive: DMS-114 45.5 µM | DMS-273 30.3 µM | HOP-18 > 100 µM | KM-20L2 > 100 µM | LXFL 529 > 100 µM | M19-MEL > 100 µM | SNB-78 80 µM

COc1cc(C2C(C(=O)O)=C(COC(C)=O)Oc3cc4c(cc32)OCO4)cc(OC)c1OC(C)=O (configuration not stated)
inactive: DMS-114 > 100 µM | DMS-273 > 100 µM | HOP-18 > 100 µM | KM-20L2 > 100 µM | M19-MEL > 100 µM | RXF 631 > 100 µM | SNB-78 > 100 µM | XF498 > 100 µM

CCC12CCCNC1c1c(n(C)c3ccccc13)C(C(=O)OC)C2 (configuration not stated)
inactive: DMS-114 18.5 µM | DMS-273 68.7 µM | KM-20L2 44.3 µM | LXFL 529 80.2 µM | M19-MEL 68.4 µM | XF498 51.6 µM

O=C1NC2C=CN(Cc3ccccc3)C=C2C(=O)N2CCCC12 (configuration not stated)
inactive: DMS-114 > 100 µM | DMS-273 > 100 µM | HOP-18 > 100 µM | KM-20L2 > 100 µM | LXFL 529 > 100 µM | M19-MEL > 100 µM | RXF 631 > 100 µM | SNB-78 > 100 µM | XF498 > 100 µM

CCCCCCCC(=O)OCC(COC(=O)C(C)(C)C)OC(=O)Cc1ccccc1 (configuration not stated)
inactive: DMS-114 > 100 µM | DMS-273 > 100 µM | HOP-18 > 100 µM | KM-20L2 > 100 µM | LXFL 529 > 100 µM | M19-MEL > 100 µM

N#C/C(=N\c1ccccc1N(C(=O)c1ccccc1)C(=O)c1ccccc1)c1ccccc1
inactive: DMS-114 4.63 µM | DMS-273 3.83 µM | HOP-18 > 40.4 µM | KM-20L2 9.71 µM | LXFL 529 41 µM | M19-MEL > 100 µM | SNB-78 > 91 µM | XF498 7.8 µM

C=C1c2ccccc2N(S(=O)(=O)c2ccc(C)cc2)C12CCCCC2
inactive: DMS-114 18.9 µM | DMS-273 45 µM | HOP-18 > 100 µM | KM-20L2 > 100 µM | LXFL 529 37.2 µM | M19-MEL 47.1 µM | XF498 > 100 µM

C=CCOC1CC(n2cnc3c(N)ncnc32)OC1CO (configuration not stated)
inactive: DMS-114 > 100 µM | DMS-273 > 100 µM | KM-20L2 > 100 µM | LXFL 529 > 100 µM | M19-MEL > 100 µM | XF498 > 100 µM

COc1cc(C)c(C(=O)/C=C/c2cc(OC)c(O)c(OC)c2)cc1O
inactive: DMS-114 20.5 µM | DMS-273 15.5 µM | KM-20L2 26.5 µM | LXFL 529 20.4 µM | M19-MEL 19.3 µM | RXF 631 20.8 µM | SNB-78 45.5 µM | XF498 15.7 µM

NC(CO)c1ccc(OCc2ccccc2)cc1 (configuration not stated)
inactive: DMS-114 > 100 µM | DMS-273 > 100 µM | HOP-18 > 100 µM | KM-20L2 > 100 µM | LXFL 529 > 100 µM | M19-MEL > 100 µM | SNB-78 > 100 µM | XF498 76.9 µM

O=C(/C=C\c1cccc2ccccc12)c1cccs1
inactive: DMS-114 4.3 µM | DMS-273 5.26 µM | HOP-18 10.2 µM | KM-20L2 10.7 µM | LXFL 529 10.9 µM | M19-MEL 8.3 µM | SNB-78 15.1 µM

CCCCCCCCOCC(O)COC(C)C (configuration not stated)
inactive: DMS-273 16.7 µM | HOP-18 > 100 µM | KM-20L2 85.1 µM | LXFL 529 93.8 µM | M19-MEL 45.5 µM

CCC(C)[C@@H]1NC(=O)[C@@H]2CCCN2C(=O)C(CC(O)CO)OC(=O)CCNC(=O)[C@H](C)N(C)C(=O)[C@H](C(C)C)N(C)C1=O (some centres not stated) (cyclo([Ile(3ξ)][NMeV][NMeA][βAla][X24]P))
inactive: DMS-273 > 100 µM | KM-20L2 > 100 µM | LXFL 529 44.6 µM | M19-MEL > 100 µM | RXF 631 > 100 µM | SNB-78 > 100 µM | XF498 > 100 µM

COc1cc2c3c(c1OC)-c1ccccc1C(C(O)c1ccccc1)C3N(C)CC2 (configuration not stated)
inactive: DMS-114 17.6 µM | DMS-273 25.5 µM | HOP-18 82.8 µM | KM-20L2 20.1 µM | LXFL 529 29.6 µM | M19-MEL 27.8 µM | RXF 631 22.2 µM | SNB-78 65.9 µM | XF498 19.1 µM

Cc1cc(Cl)ccc1NC(=O)C1C(=O)C(=O)N(c2ccc(Cl)cc2C)C1=O (configuration not stated)
inactive: DMS-114 25.1 µM | DMS-273 > 100 µM | KM-20L2 48.3 µM | LXFL 529 48.3 µM | M19-MEL > 100 µM | RXF 631 68.2 µM | SNB-78 76 µM

O=C(O)c1c2c(cc3c(=O)cc(-c4ccccc4)oc13)CCCC2
inactive: DMS-273 > 100 µM | KM-20L2 > 100 µM | LXFL 529 > 100 µM | RXF 631 > 100 µM | SNB-78 > 100 µM | XF498 > 100 µM

COc1cc2cc3c4c(cc(OC)c(OC)c4c2cc1OC)CCN3C(=O)CCC(=O)O
inactive: DMS-114 > 100 µM | DMS-273 > 100 µM | KM-20L2 > 100 µM | LXFL 529 > 100 µM | SNB-78 > 100 µM

COc1ccc2c(c1)[n+]([O-])c(C(=O)C/C(=N\NC(=O)C[N+](C)(C)C)C(=O)Nc1cc(Cl)ccc1Cl)c(C)[n+]2[O-]
inactive: DMS-273 > 100 µM | HOP-18 > 100 µM | LXFL 529 > 100 µM | M19-MEL > 100 µM | SNB-78 > 100 µM

CC(=O)O/N=C/c1cc2c(cc1Br)OCO2
inactive: DMS-114 > 349 µM | DMS-273 > 349 µM | KM-20L2 > 349 µM | LXFL 529 > 349 µM | M19-MEL > 349 µM | XF498 > 349 µM

CC(=O)O[C@H]1CC[C@@]2(C)C(=CC[C@@H]3C2CC[C@]2(C)Nc4c(cnn4-c4ccccc4)CC32)C1 (some centres not stated)
inactive: DMS-114 37.1 µM | DMS-273 4.24 µM | KM-20L2 3.78 µM | LXFL 529 17.9 µM | M19-MEL 34.2 µM | SNB-78 14.4 µM | XF498 25.7 µM

N#CC(C#N)=Cc1ccc(C(O)P(=O)(O)O)cc1 (configuration not stated)
inactive: DMS-114 > 100 µM | DMS-273 > 100 µM | HOP-18 > 100 µM | KM-20L2 > 100 µM | LXFL 529 > 100 µM | M19-MEL > 100 µM | RXF 631 > 100 µM | SNB-78 > 100 µM | XF498 > 100 µM

COc1ccc(-c2cc(C(=O)Nc3cccc(C(F)(F)F)c3)nc(S)n2)cc1
inactive: DMS-114 > 100 µM | DMS-273 > 100 µM | HOP-18 > 100 µM | KM-20L2 > 100 µM | LXFL 529 > 100 µM | M19-MEL > 100 µM | SNB-78 > 100 µM | XF498 > 100 µM
